According to patent US10513521B2, “Compositions and methods for inhibiting BMP” (The Brigham and Women's Hospital, Inc., priority 2014, dated 2019):
pIC50: −log10 of the molar value. Values joined by “and” are separate entries in the source; they are usually repeats but may differ in a detail not shown here. Identical values can stand only once.

What was measured:
[1] = Cell-based assay, TGFb1 (Cell IC50)
[2] = target: T1, ALK1 (Bos taurus, UniProt A4FUX2); experiment: HTRF pSMAD1 cell-based ALK1 assay (BAOEC cells, BMP9 as agonist); design: species or system Bovine
T1 construct: The BAOEC cell line was employed for the measurement of ALK1 activity using BMP9 as the agonist; host or cells: BAOEC (bovine aortic endothelial cells)
T1 sequence (A4FUX2 23-503): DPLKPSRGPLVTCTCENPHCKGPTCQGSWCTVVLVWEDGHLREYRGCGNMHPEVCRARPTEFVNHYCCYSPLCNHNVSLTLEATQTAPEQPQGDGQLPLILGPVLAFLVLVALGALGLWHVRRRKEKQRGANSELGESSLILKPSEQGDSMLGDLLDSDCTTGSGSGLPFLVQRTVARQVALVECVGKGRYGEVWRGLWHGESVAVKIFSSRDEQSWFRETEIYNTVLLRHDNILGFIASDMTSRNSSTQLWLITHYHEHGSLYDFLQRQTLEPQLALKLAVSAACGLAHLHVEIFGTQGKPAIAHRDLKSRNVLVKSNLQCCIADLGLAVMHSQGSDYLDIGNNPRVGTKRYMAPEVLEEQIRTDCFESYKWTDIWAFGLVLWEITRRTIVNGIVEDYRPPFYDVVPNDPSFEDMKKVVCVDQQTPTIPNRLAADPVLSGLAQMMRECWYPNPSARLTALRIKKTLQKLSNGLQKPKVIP
Description: 2. HTRF Cell-Based ALK1 and ALK2 Assays in 384-Well Plate Format We have developed a cell based ALK1 kinase assay and a cell-based ALK2 assay. The BAOEC cell line was employed for the measurement of ALK1 activity using BMP9 as the agonist. The C2C12 cell line was selected for the measurement of ALK2 activity using BMP6 as the agonist. The kinase specificity was defined by the specific cell line and agonist. The kinase activity was determined by the status of SMD 1/5/8 phosphorylation stimulated by the agonist.
HyClone Fetal Bovine Serum was obtained from GE healthcare life sciences (Logan, Utah). BMP6 and BMP9 were purchased from R&D System. […] The compound plates and the white solid MB assay plates were purchased from Greiner Bio-one (Monroe, N.C.).
HTRF optimization experiments were performed in 384 well plate format. […] Pre-starved cells were then plated in 384 well plate in the starvation medium (containing in 0.1% FBS). After 4 hours, compounds were added to the assay plate and incubated for 30 minutes. The assay plate was then added with BMP6 for C2C12 cells or BMP9 for BAOEC cells and incubated for 30 minutes.
HTRF assay was performed to measure the status of SMAD 1 phosphorylation after stimulated with the agonist (Table 3). This HTRF phospho SMAD1 cell assay was developed and optimized for the homogenous detection of phospho SMAD 1 levels in cells. […] The plate was incubated at room temperature for overnight.

pIC50 [1] | pIC50 [2] | Compound
4.00 | 6.74 | C[S+](=O)([O-])c1cccc(-c2cnn3cc(-c4ccc(OC5(CN6CCCCC6)COC5)cc4)cnc23)c1 [Compound 93, 3-(3-(methylsulfonyl)phenyl)-6-(4-((3-(piperidin-1-ylmethyl)oxetan-3-yl)oxy)phenyl)pyrazolo[1,5-a]pyrimidine]
 | 7.85 | C[C@@H]1CNC[C@H](C)N1c1ccc(-c2cnc3c(-c4cccc(C(C)(C)O)c4)cnn3c2)cc1 [Compound 103, 2-(3-(6-(4-((2R,6S)-2,6-dimethylpiperazin-1-yl)phenyl)pyrazolo[1,5-a]pyrimidin-3-yl)phenyl)propan-2-ol]
6.45 | 7.36 and 7.70 | C[C@@H]1CNC[C@H](C)N1c1ccc(-c2cnc3c(-c4cccc5c(C(N)=O)cccc45)cnn3c2)cc1 [Compound 10, 5-(6-(4-((2S,6R)-2,6-dimethylpiperazin-1-yl)phenyl)pyrazolo[1,5-a]pyrimidin-3-yl)-1-naphthamide]
 | 6.85 | C[S+](=O)([O-])c1cccc(-c2cnn3cc(-c4ccc(OC5(Cn6ccnc6)COC5)cc4)cnc23)c1 [Compound 105, 6-(4-((3-((1H-imidazol-1-yl)methyl)oxetan-3-yl)oxy)phenyl)-3-(3-(methylsulfonyl)phenyl)pyrazolo[1,5-a]pyrimidine]
5.57 |  | N/C(=N/O)c1ccc(-c2cnn3cc(-c4ccc(N5CCNCC5)cc4)cnc23)c2ccccc12 [Compound 15, N′-hydroxy-4-(6-(4-(piperazin-1-yl)phenyl)pyrazolo[1,5-a]pyrimidin-3-yl)-1-naphthimidamide]
6.57 |  | CC(C)(CN1CCCCC1)Oc1ccc(-c2cnc3c(-c4cccc5c(C(N)=O)cccc45)cnn3c2)cc1 [Compound 18, 5-(6-(4-((2-methyl-1-(piperidin-1-yl)propan-2-yl)oxy)phenyl)pyrazolo[1,5-a]pyrimidin-3-yl)-1-naphthamide]
6.02 | 7.00 | CC(O)c1cccc(-c2cnn3cc(-c4ccc(N5[C@H](C)CNC[C@@H]5C)cc4)cnc23)c1 (stereo partly drawn) [Compound 83, 1-(3-(6-(4-((2R,6S)-2,6-dimethylpiperazin-1-yl)phenyl)pyrazolo[5-a]pyrimidin-3-yl)phenyl)ethanol]
 | 6.72 | C[C@@H]1CNC[C@H](C)N1c1ccc(-c2cnc3c(-c4cccc(S(C)(=O)=O)c4)cnn3c2)cc1 [Compound 82, 6-(4-((2R,6S)-2,6-dimethylpiperazin-1-yl)phenyl)-3-(3-(methylsulfonyl)phenyl)pyrazolo[1,5-a]pyrimidine]
 | 6.07 | C[C@@H]1CNC[C@H](C)N1c1ccc(-c2cnc3c(-c4cccc([S+](=O)([O-])C5CC5)c4)cnn3c2)cc1 [Compound 111, 3-(3-(cyclopropylsulfonyl)phenyl)-6-(4-((2R,6S)-2,6-dimethylpiperazin-1-yl)phenyl)pyrazolo[1,5-a]pyrimidine]
 | 7.15 | CC[S+](=O)([O-])c1cccc(-c2cnn3cc(-c4ccc(N5[C@H](C)CNC[C@@H]5C)cc4)cnc23)c1 [Compound 104, 6-(4-((2R,6S)-2,6-dimethylpiperazin-1-yl)phenyl)-3-(3-(ethylsulfonyl)phenyl)pyrazolo[1,5-a]pyrimidine]
